Here are results for 32 molecules from ChEMBL document CHEMBL1135077, “Human glucagon receptor antagonists based on alkylidene hydrazides” (Bioorg Med Chem Lett, 2002).

Sequence of Glucagon receptor (Homo sapiens, UniProt P47871) (P47871 whole entry): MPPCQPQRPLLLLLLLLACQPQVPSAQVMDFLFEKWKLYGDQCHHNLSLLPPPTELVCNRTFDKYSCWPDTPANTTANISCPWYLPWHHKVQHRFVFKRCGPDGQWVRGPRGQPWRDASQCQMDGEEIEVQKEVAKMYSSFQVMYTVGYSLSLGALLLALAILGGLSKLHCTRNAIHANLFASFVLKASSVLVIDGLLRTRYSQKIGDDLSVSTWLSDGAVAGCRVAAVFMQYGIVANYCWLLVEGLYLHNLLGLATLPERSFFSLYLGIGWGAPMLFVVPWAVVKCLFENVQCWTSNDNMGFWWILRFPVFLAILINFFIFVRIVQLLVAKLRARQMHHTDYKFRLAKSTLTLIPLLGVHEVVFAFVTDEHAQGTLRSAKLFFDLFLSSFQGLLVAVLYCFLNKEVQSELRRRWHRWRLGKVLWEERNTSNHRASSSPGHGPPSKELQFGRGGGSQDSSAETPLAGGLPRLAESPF

One series has as its target Glucagon receptor (Homo sapiens, UniProt P47871). Nature of the series: In vitro inhibitory activity against human glucagon receptor using […]-labeled glucagon.
As to `COc1cc(/C=N/NC(=O)c2ccc(O)c(C#N)c2)cc(OC)c1OCc1ccc(C(C)C)cc1`, it took 0.02 µM to reach half-maximal inhibition (IC50).

Take `CC(C)c1ccc(Cn2ccc3c(/C=N/NC(=O)c4ccc(O)c(Cl)c4)cccc32)cc1`: the IC50 (usually the midpoint of a concentration-inhibition curve) was determined as 0.084 µM. `CCN(CC)C(=O)COc1ccc(/C=N/NC(=O)c2ccc(O)c(Cl)c2)c2ccccc12` had a 50% inhibitory concentration (IC50) of 0.13 µM. Take `COc1ccc(/C=N/NC(=O)c2ccc(O)c(Cl)c2)c2ccccc12`: half-maximal inhibition (IC50) was put at 0.87 µM.

`COc1cc(/C=N/NC(=O)c2ccc(O)c([N+](=O)[O-])c2)cc(OC)c1OCc1ccc(C(C)C)cc1` had an IC50 of 0.05 µM. In turn, `COc1cc(/C=N/NC(=O)c2ccc(O)c(O)c2)cc(OC)c1OCc1ccc(C(C)C)cc1` came in with a half-inhibitory concentration (IC50) of 2.7 µM. The molecule `COc1cc(/C=N/NC(=O)c2ccc(O)c(Cl)c2Cl)cc(OC)c1OCc1ccc(C(C)C)cc1` came in with an IC50 of 0.031 µM. Molecule `COc1cc(/C=N/NS(=O)(=O)c2ccc(O)c(Cl)c2)cc(OC)c1OCc1ccc(C(C)C)cc1` showed an IC50 of 78.3 µM. As for `COc1cc(/C=N/NC(=O)c2ccc(O)c(F)c2)cc(OC)c1OCc1ccc(C(C)C)cc1`, the IC50 was 0.11 µM.

`COc1cc(/C=N/NC(=O)c2ccc(O)c(Cl)c2)cc(OC)c1OCc1ccc(OC(F)(F)F)cc1`: the IC50 came to 0.18 µM.

`COc1cc(CCNC(=N)c2ccc(O)c(Cl)c2)cc(OC)c1OCc1ccc(C(C)C)cc1` registered an IC50 of 5.2 µM.

In turn, `COc1cc(/C=N/NC(=O)c2ccc(O)c(Cl)c2)ccc1OCc1ccc(C(C)C)cc1` gave a half-inhibitory concentration (IC50) of 1.3 µM.

Regarding `COc1cc(/C=N/NC(=O)c2ccc(O)c(N)c2)cc(OC)c1OCc1ccc(C(C)C)cc1`, inhibition was half-maximal at 0.94 µM (IC50). `NC(=O)COc1ccc(/C=N/NC(=O)c2ccc(O)c(Cl)c2)c2ccccc12` had an IC50 of 1.2 µM. On to `COc1cc(/C(C)=N/NC(=O)c2ccc(O)c(Cl)c2)cc(OC)c1OCc1ccc(C(C)C)cc1`, for which the IC50 was above 100 µM.

Turning to `CC(C)c1ccc(COc2ccc(/C=N/NC(=O)c3ccc(O)c(Cl)c3)cc2)cc1`, the midpoint of inhibition, the IC50, lay at 1.5 µM. `Cc1cc(/C=N/NC(=O)c2ccc(O)c(Cl)c2)cc(C)c1OCc1ccc(C(C)C)cc1` had an IC50 of 0.33 µM. Turning to `COC(=O)C(Oc1c(OC)cc(/C=N/NC(=O)c2ccc(O)c(Cl)c2)cc1OC)c1ccccc1` (configuration not stated), the IC50 was 0.69 µM. The same measure, in the same setting: the result for `COc1cc(/C=N/NC(=O)c2ccc(O)c(Cl)c2)cc(OC)c1OCc1ccc(F)c(F)c1` reads 0.15 µM; that for `COc1cc(/C=N/NC(=O)c2ccc(O)c(F)c2F)cc(OC)c1OCc1ccc(C(C)C)cc1`, 0.048 µM; that for `COc1cc(CCNC(=O)c2ccc(O)c(Cl)c2)cc(OC)c1OCc1ccc(C(C)C)cc1`, 1.9 µM. Still for that read-out and setting: for `CC(C)(C)c1nc(COc2ccc(/C=N/NC(=O)c3ccc(O)c(Cl)c3)c3ccccc23)no1` the value was 0.16 µM. As for `COc1cc(CNNC(=O)c2ccc(O)c(Cl)c2)cc(OC)c1OCc1ccc(C(C)C)cc1`, the half-maximal inhibitory concentration (IC50) is 0.88 µM. In turn, `O=C(N/N=C/c1ccc(OCc2ccc(OC(F)(F)F)cc2)c2ccccc12)c1ccc(O)c(Cl)c1` came in with an IC50 of 0.058 µM.

Molecule `COc1cc(/C=N/NC(=O)c2ccc(O)c(Cl)c2)cc(C(=O)O)c1OCc1ccc(C(C)C)cc1` had an IC50 of 30 µM. As for `CC(C)c1ccc(COc2ccc(/C=N/NC(=O)c3ccc(O)c(Cl)c3)c3ccccc23)cc1`, the midpoint of inhibition, the IC50, lay at 0.053 µM.

For `COc1cc(/C=N/NC(=O)c2ccc(O)c(Cl)c2)cc(OC)c1OCc1ccc(C(C)C)cc1`, the midpoint of inhibition, the IC50, lay at 0.023 µM.

Molecule `COc1cc(/C=C/C(=O)Nc2ccc(O)c(Cl)c2)cc(OC)c1OCc1ccc(C(C)C)cc1` had an IC50 of 6.4 µM. In turn, `O=C(N/N=C/c1ccc(OCC2CCCCO2)c2ccccc12)c1ccc(O)c(Cl)c1` (configuration not stated) showed an IC50 of 0.14 µM. For the molecule `CC(C)c1ccc(Cn2cc(/C=N/NC(=O)c3ccc(O)c(Cl)c3)c3ccccc32)cc1`, the half-maximal inhibitory concentration (IC50) was found to be 0.39 µM.

Molecule `Cc1c(/C=N/NC(=O)c2ccc(O)c(Cl)c2)ccc(OCc2ccc(C(C)C)cc2)c1C` returned a concentration for half-maximal inhibition (IC50) of 0.74 µM.

As to `COc1cc(/C=N/NC(=O)c2ccc(O)cc2)cc(OC)c1OCc1ccc(C(C)C)cc1`, half-maximal inhibition (IC50) was put at 0.69 µM.

The target in another series is Glucagon receptor (Rattus norvegicus, UniProt P30082). The experiment in a line: In vitro inhibitory activity against rat glucagon receptor using […]-labeled glucagon.
Sequence of Glucagon receptor (Rattus norvegicus, UniProt P30082) (P30082 whole entry): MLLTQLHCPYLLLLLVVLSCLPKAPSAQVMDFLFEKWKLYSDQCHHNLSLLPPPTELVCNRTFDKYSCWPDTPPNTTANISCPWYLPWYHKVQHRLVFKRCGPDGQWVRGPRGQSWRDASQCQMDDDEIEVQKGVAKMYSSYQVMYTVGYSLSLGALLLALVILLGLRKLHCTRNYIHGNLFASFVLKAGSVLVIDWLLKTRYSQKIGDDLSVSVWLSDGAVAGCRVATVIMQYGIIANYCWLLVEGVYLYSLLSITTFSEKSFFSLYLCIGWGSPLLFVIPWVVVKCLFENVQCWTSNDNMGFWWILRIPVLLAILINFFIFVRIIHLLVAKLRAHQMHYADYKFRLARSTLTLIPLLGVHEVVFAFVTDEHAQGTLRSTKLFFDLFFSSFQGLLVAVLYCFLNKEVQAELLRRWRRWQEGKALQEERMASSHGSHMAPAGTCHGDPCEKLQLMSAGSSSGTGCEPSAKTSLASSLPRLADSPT
Take `COc1cc(/C=N/NC(=O)c2ccc(O)c(C#N)c2)cc(OC)c1OCc1ccc(C(C)C)cc1`: the IC50 came to 0.001 µM.

Tested on in a further series: not listed separately
The experiment in a line: Half life period in vivo. Format: ADME, organism-based.
`COc1cc(/C=N/NC(=O)c2ccc(O)c(C#N)c2)cc(OC)c1OCc1ccc(C(C)C)cc1`: the half-life (commonly how long it takes for the measured level to halve) is 60 min. For the molecule `COc1cc(/C=N/NC(=O)c2ccc(O)c(Cl)c2)cc(OC)c1OCc1ccc(C(C)C)cc1`, the half-life was determined as 18 min.

A further series is filed under the species Rattus norvegicus. The experiment in a line: In vitro metabolism in rat liver microsomes was evaluated to determine diminishing of glucuronidation rate. Format: ADME. For orientation: Microsomes from liver hold many membrane-bound enzymes, among them those of drug oxidation.
Regarding `COc1cc(/C=N/NC(=O)c2ccc(O)c(C#N)c2)cc(OC)c1OCc1ccc(C(C)C)cc1`, the Rate is 27 pM min-1 (mg of protein)-1. `COc1cc(/C=N/NC(=O)c2ccc(O)c(Cl)c2)cc(OC)c1OCc1ccc(C(C)C)cc1`: the Rate was 169 pM min-1 (mg of protein)-1.
